According to patent EP0745595A1, “3-(3-Aryloxyphenyl)-1-(substituted methyl)-s-triazine-2,4,6-oxo or thiotrione herbicidal agents” (American Cyanamid Company, priority 1995, dated 1996):

What was measured:
Format in all cases: in vivo
GALIUM APARINE = experiment: Postemergence herbicidal evaluation, GALAP (Galium); design: key to GALAP rating / Herbicidal effect rating, GALAP / GALAP: 0-9 visual rating scale vs untreated control
How it was run: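 In this postemergence greenhouse test, two-week-old Galium aparine seedlings grown in jiffy flats received a 40 psi spray of compound in acetone/water (50/50) with 0.5% TWEEN®20 surfactant. After four to five weeks, stand, vigor, malformation, size, chlorosis and overall appearance were compared with untreated controls on a 0-9 scale, averaging multiple tests.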

[1] = tested on: ECHINOCHLOA CRUS-GALLI, (L) BEAU; experiment: Postemergence herbicidal evaluation, ECHCG (Barnyardgrass); design: key to ECHCG rating / Herbicidal effect rating, ECHCG / ECHCG: 0-9 visual rating scale vs untreated control
How it was run: (§1)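 Postemergence foliar spray at approximately 0.125–0.500 kg/ha onto two-week seedlings; greenhouse hold, then 0–9 visual injury rating after 4–5 weeks.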

CHENOPODIUM ALBUM, L. [2] = experiment: Postemergence herbicidal evaluation, CHEAL (Lambsquarters, Common); conditions: for CHEAL, herbicide rating (0-9): rated four to five weeks after treatment, averaged
How it was run: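 Postemergence herbicidal activity on Chenopodium album was tested by spraying two-week-old seedlings grown in jiffy flats with compound in acetone/water (50/50) plus 0.5% TWEEN®20, using a 40 psi nozzle. Four to five weeks after treatment, stand, vigor, malformation, size, chlorosis and overall appearance were scored 0-9 relative to controls, with repeat tests averaged.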

CASSIA OBTUSIFOLIA, L. = experiment: Postemergence herbicidal evaluation, CASOB (Sicklepod); design: key to CASOB rating / Herbicidal effect rating, CASOB / CASOB: 0-9 visual rating scale vs untreated control
How it was run: as §1

IPOMOEA SPP. = experiment: Postemergence herbicidal evaluation, IPOSS (Morningglory spp.); conditions: for IPOSS, herbicide rating (0-9): rated four to five weeks after treatment, averaged
How it was run: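 In this greenhouse postemergence herbicide test on Ipomoea spp. (morningglory), compounds in 50/50 acetone/water with 0.5% TWEEN®20 were sprayed at 40 psi onto seedlings about two weeks old grown in jiffy flats. After four to five weeks, injury was scored on a 0-9 scale covering stand, vigor, malformation, size, chlorosis and overall appearance versus control, with repeat tests averaged.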

[3] = tested on: TRITICUM AESTIVUM, CV. APOLLO; experiment: Postemergence herbicidal evaluation, TRZAWO (Wheat, Winter, CV. APOLLO)
Method: In the tests, seedling plants are grown in jiffy flats for about two weeks. The test compounds are dispersed in 50/50 acetone/water mixtures containing 0.5% TWEEN®20, a polyoxyethylene sorbitan monolaurate surfactant of Atlas Chemical Industries, […] through a spray nozzle operating at 40 psi for a predetermined time. After spraying, the plants are placed on greenhouse benches and are cared for in the usual manner, commensurate with conventional greenhouse practices. From four to five weeks after treatment, the seedling plants are examined and rated according to the rating system set forth below. Where more than one test is involved for a given compound, the data are averaged.
Plant species employed in these evaluations are reported by header abbreviation, common name and scientific name.
Results of herbicide evaluation are expressed on a rating scale (0-9). The scale is based upon a visual observation of plant stand, vigor, malformation, size, chlorosis and overall plant appearance as compared with a control.

[4] = tested on: ABUTILON THEOPHRASTI, MEDIC.; experiment: Postemergence herbicidal evaluation, ABUTH (Velvetleaf); conditions: for ABUTH, herbicide rating (0-9): rated four to five weeks after treatment, averaged
How it was run: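 This postemergence herbicide test used two-week-old velvetleaf seedlings grown in jiffy flats. Each compound was sprayed at 40 psi as a dispersion in 50/50 acetone/water with 0.5% TWEEN®20 surfactant. Plants then received routine greenhouse care. After four to five weeks, injury was scored visually on a 0-9 scale against a control, and replicate tests were averaged.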

[5] = tested on: SETARIA VIRIDIS, (L) BEAU; experiment: Postemergence herbicidal evaluation, SETVI (Foxtail, Green); design: key to SETVI rating / Herbicidal effect rating, SETVI / SETVI: 0-9 visual rating scale vs untreated control
How it was run: as §1

[6] = tested on: AMBROSIA ARTEMISIIFOLIA, L.; experiment: Postemergence herbicidal evaluation, AMBEL (Ragweed, Common); conditions: for AMBEL, herbicide rating (0-9): rated four to five weeks after treatment, averaged
How it was run: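 Postemergence herbicidal activity on AMBEL (common ragweed) was assessed on two-week-old seedlings grown in jiffy flats. Treatment solutions of 50/50 acetone/water with 0.5% TWEEN®20 surfactant were sprayed at 40 psi. After four to five weeks in the greenhouse, plants were scored 0-9 against a control for stand, vigor, malformation, size, chlorosis and overall appearance, with multiple tests averaged.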

[7] = tested on: ORYZA SATIVA, L. TEBONNET; experiment: Rice tolerance to post-transplant applications under flooded paddy conditions, ORYSAT (Rice, Tebonnet); conditions: for ORYSAT: post-transplanted rice; for ORYSAT herbicidal rating (rice tolerance): post-transplant rice, rated three to four weeks after treatment;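 on ORYSAT herbicidal rating (rice tolerance): applied to flooded soil surface three days after transplanting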
How it was run: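 Greenhouse pots of silt loam, each with two transplanted ten-day-old seedlings, are held under 1.5 to 3 cm of standing water. Three days later the compound is applied to the flooded surface at about 0.5, 0.25, 0.125 or 0.063 kg/ha. Damage is scored visually 0-9 after 3-4 weeks.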

CHENOPODIUM ALBUM, L. [8] = experiment: Preemergence herbicidal evaluation, CHEAL (Lambsquarters, Common); conditions: four to five weeks after treatment
How it was run: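 Greenhouse preemergence test; treated soil cups received compound in aqueous acetone (about 0.125 to 0.50 kg/ha) right after sowing and were assessed visually 4-5 weeks later on a 0-9 scale compared with control plants.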

Q: For `Cn1c(=O)[nH]c(=O)n(-c2cc(Oc3c(F)cc(C(F)(F)F)cc3Cl)ccc2F)c1=O` [C, reference compound], which “Herbicidal effect rating, GALAP” value (GALIUM APARINE; 0.031 kg/ha) is on record?
A: 2.0

Q: What about the “Herbicidal effect rating, GALAP” value (GALIUM APARINE; 0.063 kg/ha) of the same compound?
A: 6.0

Q: What about the “Herbicidal effect rating, GALAP” value (GALIUM APARINE; 0.125 kg/ha) of the same compound?
A: 7.0

Q: And the “Herbicidal effect rating, GALAP” value (GALIUM APARINE; 0.250 kg/ha)?
A: 7.0

Q: What about the “Herbicidal effect rating, ECHCG” value ([1]; 0.031 kg/ha) of the same compound?
A: 0.0

Q: And the “Herbicidal effect rating, ECHCG” value ([1]; 0.063 kg/ha)?
A: 0.0

Q: What about the “Herbicidal effect rating, ECHCG” value ([1]; 0.125 kg/ha) of the same compound?
A: 0.0

Q: And the “Herbicidal effect rating, ECHCG” value ([1]; 0.250 kg/ha)?
A: 2.0

Q: What about the “Herbicidal effect rating, CHEAL” value (CHENOPODIUM ALBUM, L. [2]; 0.031 kg/ha) of the same compound?
A: 3.0

Q: What about the “Herbicidal effect rating, CHEAL” value (CHENOPODIUM ALBUM, L. [2]; 0.063 kg/ha) of the same compound?
A: 4.0

Q: What about the “Herbicidal effect rating, CHEAL” value (CHENOPODIUM ALBUM, L. [2]; 0.125 kg/ha) of the same compound?
A: 7.0

Q: And the “Herbicidal effect rating, CHEAL” value (CHENOPODIUM ALBUM, L. [2]; 0.250 kg/ha)?
A: 7.0

Q: What about the “Herbicidal effect rating, CASOB” value (CASSIA OBTUSIFOLIA, L.; 0.031 kg/ha) of the same compound?
A: 2.0

Q: What about the “Herbicidal effect rating, CASOB” value (CASSIA OBTUSIFOLIA, L.; 0.063 kg/ha) of the same compound?
A: 4.0

Q: What about the “Herbicidal effect rating, CASOB” value (CASSIA OBTUSIFOLIA, L.; 0.125 kg/ha) of the same compound?
A: 4.0

Q: What about the “Herbicidal effect rating, CASOB” value (CASSIA OBTUSIFOLIA, L.; 0.250 kg/ha) of the same compound?
A: 6.0

Q: What about the “Herbicidal effect rating, IPOSS” value (IPOMOEA SPP.; 0.031 kg/ha) of the same compound?
A: 4.0

Q: What about the “Herbicidal effect rating, IPOSS” value (IPOMOEA SPP.; 0.063 kg/ha) of the same compound?
A: 5.0

Q: And the “Herbicidal effect rating, IPOSS” value (IPOMOEA SPP.; 0.125 kg/ha)?
A: 6.0

Q: And the “Herbicidal effect rating, IPOSS” value (IPOMOEA SPP.; 0.250 kg/ha)?
A: 9.0

Q: What about the “Herbicidal effect rating, TRZAWO” value ([3]; 0.031 kg/ha) of the same compound?
A: 3.5

Q: And the “Herbicidal effect rating, TRZAWO” value ([3]; 0.063 kg/ha)?
A: 4.0

Q: And the “Herbicidal effect rating, TRZAWO” value ([3]; 0.125 kg/ha)?
A: 4.5

Q: What about the “Herbicidal effect rating, TRZAWO” value ([3]; 0.250 kg/ha) of the same compound?
A: 4.5

Q: And the “Herbicidal effect rating, ABUTH” value ([4]; 0.031 kg/ha)?
A: 2.0

Q: And the “Herbicidal effect rating, ABUTH” value ([4]; 0.063 kg/ha)?
A: 4.0

Q: What about the “Herbicidal effect rating, ABUTH” value ([4]; 0.125 kg/ha) of the same compound?
A: 7.0

Q: And the “Herbicidal effect rating, ABUTH” value ([4]; 0.250 kg/ha)?
A: 7.0

Q: What about the “Herbicidal effect rating, SETVI” value ([5]; 0.031 kg/ha) of the same compound?
A: 0.0

Q: What about the “Herbicidal effect rating, SETVI” value ([5]; 0.063 kg/ha) of the same compound?
A: 0.0

Q: What about the “Herbicidal effect rating, SETVI” value ([5]; 0.125 kg/ha) of the same compound?
A: 0.0

Q: What about the “Herbicidal effect rating, SETVI” value ([5]; 0.250 kg/ha) of the same compound?
A: 1.0

Q: And the “Herbicidal effect rating, AMBEL” value ([6]; 0.031 kg/ha)?
A: 1.0

Q: And the “Herbicidal effect rating, AMBEL” value ([6]; 0.063 kg/ha)?
A: 3.0

Q: What about the “Herbicidal effect rating, AMBEL” value ([6]; 0.125 kg/ha) of the same compound?
A: 4.0

Q: What about the “Herbicidal effect rating, AMBEL” value ([6]; 0.250 kg/ha) of the same compound?
A: 6.0

Q: What about the ORYSAT ([7]; Rate 0.031 kg/ha) of the same compound?
A: 1.0

Q: What about the ORYSAT ([7]; Rate 0.063 kg/ha) of the same compound?
A: 1.0

Q: What about the ORYSAT ([7]; Rate 0.125 kg/ha) of the same compound?
A: 3.0

Q: And the ORYSAT ([7]; Rate 0.250 kg/ha)?
A: 5.0

Q: With `COC(=O)Cn1c(=O)[nH]c(=O)n(-c2cc(Oc3ccc(C(F)(F)F)cc3Cl)ccc2[N+](=O)[O-])c1=O` [Compound 8, Methyl 3-{5-[(2-chloro-α,α,α-trifluoro-p-tolyl)oxy]-2-nitrophenyl}tetrahydro-2,4,6-trioxo-s-triazine-1(2H)-acetate] as the compound, how does the “CHEAL, herbicide rating (0-9)” value (CHENOPODIUM ALBUM, L. [2]; Rate 0.125 kg/ha) read?
A: 9.0

Q: What about the “CHEAL, herbicide rating (0-9)” value (CHENOPODIUM ALBUM, L. [2]; Rate 0.250 kg/ha) of the same compound?
A: 9.0

Q: What about the “CHEAL, herbicide rating (0-9)” value (CHENOPODIUM ALBUM, L. [2]; Rate 0.500 kg/ha) of the same compound?
A: 9.0

Q: And the “IPOSS, herbicide rating (0-9)” value (IPOMOEA SPP.; Rate 0.125 kg/ha)?
A: 9.0

Q: And the “IPOSS, herbicide rating (0-9)” value (IPOMOEA SPP.; Rate 0.250 kg/ha)?
A: 9.0

Q: And the “IPOSS, herbicide rating (0-9)” value (IPOMOEA SPP.; Rate 0.500 kg/ha)?
A: 9.0

Q: What about the CHEAL rating (CHENOPODIUM ALBUM, L. [8]; Rate 0.125 kg/ha) of the same compound?
A: 9.0

Q: And the CHEAL rating (CHENOPODIUM ALBUM, L. [8]; Rate 0.250 kg/ha)?
A: 9.0

Q: What about the CHEAL rating (CHENOPODIUM ALBUM, L. [8]; Rate 0.500 kg/ha) of the same compound?
A: 9.0

Q: What about the “ABUTH, herbicide rating (0-9)” value ([4]; Rate 0.125 kg/ha) of the same compound?
A: 9.0

Q: And the “ABUTH, herbicide rating (0-9)” value ([4]; Rate 0.250 kg/ha)?
A: 9.0

Q: And the “ABUTH, herbicide rating (0-9)” value ([4]; Rate 0.500 kg/ha)?
A: 9.0

Q: What about the “AMBEL, herbicide rating (0-9)” value ([6]; Rate 0.125 kg/ha) of the same compound?
A: 9.0

Q: What about the “AMBEL, herbicide rating (0-9)” value ([6]; Rate 0.250 kg/ha) of the same compound?
A: 9.0

Q: And the “AMBEL, herbicide rating (0-9)” value ([6]; Rate 0.500 kg/ha)?
A: 9.0

Q: And the “ORYSAT herbicidal rating (rice tolerance)” value (from here on “ORYSAT herbicidal rating”) ([7]; Rate 0.063 kg/ha)?
A: 0.0

Q: What about the “ORYSAT herbicidal rating” value ([7]; Rate 0.125 kg/ha) of the same compound?
A: 0.0

Q: And the “ORYSAT herbicidal rating” value ([7]; Rate 0.250 kg/ha)?
A: 1.0

Q: What about the “ORYSAT herbicidal rating” value ([7]; Rate 0.500 kg/ha) of the same compound?
A: 2.0
